Measured values as given in PubChem BioAssay AID330 (DTP/NCI, 2004).
Several values for one entry are separate records, joined by “and”; a condition that tells them apart may be missing. Identical values can stand only once. Toxic doses and inconclusive results are not listed.

System: P388 leukemia ip, CD2F1 mice, survival T/C
Assay: NCI In Vivo Anticancer Drug Screen. Data for tumor model P388 Leukemia (intraperitoneal) in CD2F1 (CDF1) mice
Settings: endpoint: median survival time, higher = longer survival
Method in brief: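 Mice carrying the transplanted tumor received test compound or vehicle. Survival was recorded in each group, and the value is the treated-group measurement divided by that of the vehicle-treated control group.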

[1] = dose: 25.0 mg/kg/injection, schedule: Q01DX009 (ip), vehicle: Klucel (hydroxypropylcellulose) (HPC)
[2] = dose: 60.0 mg/kg/injection, schedule: Q01DX005 (ip), vehicle: saline with Tween-80
[3] = dose: 120.0 mg/kg/injection, schedule: Q01DX005 (ip), vehicle: saline with Tween-80
[4] = dose: 240.0 mg/kg/injection, schedule: Q01DX005 (ip), vehicle: saline with Tween-80
[5] = dose: 25.0 mg/kg/injection, schedule: Q01DX009 (ip), vehicle: saline with Tween-80
[6] = dose: 50.0 mg/kg/injection, schedule: Q01DX009 (ip), vehicle: saline with Tween-80
[7] = dose: 50.0 mg/kg/injection, schedule: Q01DX009 (ip), vehicle: saline
[8] = dose: 100.0 mg/kg/injection, schedule: Q01DX009 (ip), vehicle: saline with Tween-80
[9] = dose: 100.0 mg/kg/injection, schedule: Q01DX009 (ip), vehicle: saline
[10] = dose: 200.0 mg/kg/injection, schedule: Q01DX009 (ip), vehicle: saline with Tween-80
[11] = dose: 12.5 mg/kg/injection, schedule: Q01DX005 (ip), vehicle: saline with Tween-80
[12] = dose: 25.0 mg/kg/injection, schedule: Q01DX005 (ip), vehicle: saline with Tween-80
[13] = dose: 50.0 mg/kg/injection, schedule: Q01DX005 (ip), vehicle: saline with Tween-80
[14] = dose: 100.0 mg/kg/injection, schedule: Q01DX005 (ip), vehicle: saline with Tween-80
[15] = dose: 200.0 mg/kg/injection, schedule: Q01DX005 (ip), vehicle: saline with Tween-80
[16] = dose: 60.0 mg/kg/injection, schedule: Q01DX005 (ip), vehicle: Klucel (hydroxypropylcellulose) (HPC)
[17] = dose: 120.0 mg/kg/injection, schedule: Q01DX005 (ip), vehicle: Klucel (hydroxypropylcellulose) (HPC)
[18] = dose: 240.0 mg/kg/injection, schedule: Q01DX005 (ip), vehicle: Klucel (hydroxypropylcellulose) (HPC)
[19] = dose: 50.0 mg/kg/injection, schedule: Q01DX009 (ip), vehicle: Klucel (hydroxypropylcellulose) (HPC)
[20] = dose: 100.0 mg/kg/injection, schedule: Q01DX009 (ip), vehicle: Klucel (hydroxypropylcellulose) (HPC)
[21] = dose: 50.0 mg/kg/injection, schedule: Q01DX005 (ip), vehicle: Klucel (hydroxypropylcellulose) (HPC)
[22] = dose: 100.0 mg/kg/injection, schedule: Q01DX005 (ip), vehicle: Klucel (hydroxypropylcellulose) (HPC)
[23] = dose: 200.0 mg/kg/injection, schedule: Q01DX005 (ip), vehicle: Klucel (hydroxypropylcellulose) (HPC)

SMILES: O=[N+]([O-])c1cccnc1S(=O)(=O)c1ncccn1
- T/C (dose: 6.25 mg/kg/injection, schedule: Q01DX009 (ip), vehicle: Klucel (hydroxypropylcellulose) (HPC)): 100 % of control
- T/C (dose: 12.5 mg/kg/injection, schedule: Q01DX009 (ip), vehicle: Klucel (hydroxypropylcellulose) (HPC)): 110 % of control
- T/C [1]: 96 % of control

SMILES: Cc1ccc(C)c(NC(=O)CCC(=O)C(C#N)c2nc3ccccc3s2)c1 (centres undefined)
- T/C [2]: 103 % of control
- T/C [3]: 102 % of control
- T/C [4]: 97 % of control

SMILES: CCC(=O)Oc1ccc[nH]c1=O
- T/C [5]: 101 % of control
- T/C (dose: 25.0 mg/kg/injection, schedule: Q01DX009 (ip), vehicle: saline): 105 % of control and 92 % of control
- T/C [6]: 100 % of control
- T/C [7]: 100 % of control and 110 % of control
- T/C [8]: 100 % of control
- T/C [9]: 103 % of control and 94 % of control
- T/C [10]: 112 % of control and 121 % of control
- T/C (dose: 300.0 mg/kg/injection, schedule: Q01DX009 (ip), vehicle: saline): 115 % of control and 116 % of control
- T/C (dose: 400.0 mg/kg/injection, schedule: Q01DX009 (ip), vehicle: Klucel (hydroxypropylcellulose) (HPC)): 123 % of control
- T/C (dose: 400.0 mg/kg/injection, schedule: Q01DX009 (ip), vehicle: saline with Tween-80): 122 % of control
- T/C (dose: 500.0 mg/kg/injection, schedule: Q01DX009 (ip), vehicle: Klucel (hydroxypropylcellulose) (HPC)): 154 % of control
- T/C (dose: 600.0 mg/kg/injection, schedule: Q01DX009 (ip), vehicle: saline with Tween-80): 122 % of control
- T/C (dose: 600.0 mg/kg/injection, schedule: Q01DX009 (ip), vehicle: saline): 124 % of control

SMILES: Nc1ccccc1SCc1ccccc1
- T/C [5]: 103 % of control
- T/C [6]: 100 % of control
- T/C [8]: 102 % of control
- T/C [10]: 108 % of control

SMILES: CCCCCCCCCC(=O)C1C(c2ccccc2)CC(=O)C(CCCCCCCC)C1c1ccccc1 (centres undefined)
- T/C [11]: 87 % of control
- T/C [12]: 98 % of control
- T/C [13]: 109 % of control and 93 % of control
- T/C [14]: 105 % of control
- T/C [15]: 115 % of control

SMILES: CC(C)C1=CC2=C(C(=O)C1=O)C13CCCC(C)(C)C1CC2OC3=O (centres undefined)
- T/C (dose: 7.0 mg/kg/injection, schedule: Q01DX005 (ip), vehicle: saline with Tween-80): 105 % of control
- T/C (dose: 14.0 mg/kg/injection, schedule: Q01DX005 (ip), vehicle: saline with Tween-80): 104 % of control
- T/C (dose: 28.0 mg/kg/injection, schedule: Q01DX005 (ip), vehicle: saline with Tween-80): 109 % of control

SMILES: CCOC(=O)C1=C(C(=O)c2ccc(C)cc2)C(c2ccc([N+](=O)[O-])cc2)C(C(=O)c2ccc(C)cc2)=C(C(=O)OCC)N1
- T/C [2]: 90 % of control
- T/C [3]: 90 % of control

SMILES: O=C(COc1ccc2c(=O)c3ccccc3oc2c1)N/N=C/c1ccc(N(CCCl)CCCl)cc1
- T/C [16]: 97 % of control
- T/C [17]: 95 % of control
- T/C [18]: 94 % of control

SMILES: CCOC(=O)/C(N)=N/N=Nc1ccc([N+](=O)[O-])cc1
- T/C [7]: 103 % of control
- T/C [9]: 103 % of control

SMILES: CCCCOC(=O)C1=NNC(=O)C1
- T/C [1]: 115 % of control
- T/C [19]: 108 % of control
- T/C [20]: 112 % of control
- T/C (dose: 200.0 mg/kg/injection, schedule: Q01DX009 (ip), vehicle: Klucel (hydroxypropylcellulose) (HPC)): 108 % of control

SMILES: CCOC(=O)N1c2ccccc2OC1C#N (centres undefined)
- T/C [13]: 99 % of control
- T/C [14]: 107 % of control
- T/C [15]: 113 % of control

SMILES: CCOC(=O)[C]1([Sn]([CH3])([CH3])[CH3])N=NC(C(=O)OC)=C1C(=O)OC (centres undefined)
- T/C (dose: 0.78 mg/kg/injection, schedule: Q01DX009 (ip), vehicle: saline): 98 % of control
- T/C (dose: 1.56 mg/kg/injection, schedule: Q01DX009 (ip), vehicle: saline): 89 % of control

SMILES: O=C1/C(=c2\c3ccccc3n3c(=O)c4ccccc4nc23)Nc2ccccc21
- T/C (dose: 25.0 mg/kg/injection, schedule: Q01DX005 (ip), vehicle: Klucel (hydroxypropylcellulose) (HPC)): 92 % of control
- T/C [21]: 91 % of control
- T/C [22]: 91 % of control

SMILES: CC(C)(C)c1ccc(/C=N/NC(=O)c2cccnc2)cc1
- T/C [21]: 98 % of control
- T/C [22]: 103 % of control

SMILES: CC(C)(Sc1ccc(Cl)cc1)C(=O)OCCN1CCCCC1
- T/C [2]: 91 % of control
- T/C [3]: 92 % of control
- T/C [4]: 92 % of control

SMILES: O=C(O)CS(=O)(=O)Cc1ccc(Cl)cc1Cl
- T/C (dose: 60.0 mg/kg/injection, schedule: Q01DX005 (ip), vehicle: suspension in saline): 103 % of control
- T/C (dose: 120.0 mg/kg/injection, schedule: Q01DX005 (ip), vehicle: suspension in saline): 112 % of control
- T/C (dose: 240.0 mg/kg/injection, schedule: Q01DX005 (ip), vehicle: suspension in saline): 96 % of control

SMILES: COc1c(C)n(CCCCCCn2ccc(=O)c(OC)c2C)ccc1=O
- T/C [21]: 92 % of control
- T/C [22]: 108 % of control
- T/C [23]: 93 % of control

SMILES: CN(C)C1c2cc(Br)ccc2-c2ccc(Br)cc21
- T/C [21]: 95 % of control
- T/C [22]: 105 % of control
- T/C [23]: 110 % of control

SMILES: CC(C)(OC(C)(C)C(=O)O)C(=O)O
- T/C [7]: 99 % of control
- T/C [9]: 94 % of control
- T/C (dose: 200.0 mg/kg/injection, schedule: Q01DX009 (ip), vehicle: saline): 92 % of control

SMILES: CC1CN(Cc2cc(C(C)(C)c3cc(Cl)c(O)c(CN4CC(C)OC(C)C4)c3)cc(Cl)c2O)CC(C)O1 (centres undefined)
- T/C [11]: 101 % of control
- T/C [12]: 101 % of control
- T/C [13]: 87 % of control and 91 % of control

SMILES: Cc1[nH]c2ccccc2c1CC[n+]1cccc(C#N)c1
- T/C (dose: 3.12 mg/kg/injection, schedule: Q01DX005 (ip), vehicle: Klucel (hydroxypropylcellulose) (HPC)): 108 % of control
- T/C (dose: 6.25 mg/kg/injection, schedule: Q01DX005 (ip), vehicle: Klucel (hydroxypropylcellulose) (HPC)): 100 % of control
- T/C (dose: 12.5 mg/kg/injection, schedule: Q01DX005 (ip), vehicle: Klucel (hydroxypropylcellulose) (HPC)): 103 % of control

SMILES: O=C(O)C(/N=N\c1nn[nH]n1)/N=N\c1ncn[nH]1 (centres undefined)
- T/C (dose: 100.0 mg/kg/injection, schedule: Q04DX003 (ip), vehicle: Klucel (hydroxypropylcellulose) (HPC)): 102 % of control
- T/C (dose: 200.0 mg/kg/injection, schedule: Q04DX003 (ip), vehicle: Klucel (hydroxypropylcellulose) (HPC)): 108 % of control
- T/C (dose: 400.0 mg/kg/injection, schedule: Q04DX003 (ip), vehicle: Klucel (hydroxypropylcellulose) (HPC)): 101 % of control

SMILES: CN(C)c1cnc(N)nc1N
- T/C (dose: 25.0 mg/kg/injection, schedule: Q01DX005 (ip), vehicle: saline): 95 % of control and 97 % of control
- T/C (dose: 50.0 mg/kg/injection, schedule: Q01DX005 (ip), vehicle: saline): 97 % of control
- T/C (dose: 100.0 mg/kg/injection, schedule: Q01DX005 (ip), vehicle: saline): 95 % of control

SMILES: N=c1c2c(ncn1Cc1ccccc1)CCN(Cc1ccccc1)C2
- T/C (dose: 12.5 mg/kg/injection, schedule: Q01DX009 (ip), vehicle: saline with Tween-80): 101 % of control
- T/C [5]: 100 % of control and 114 % of control
- T/C [6]: 104 % of control
- T/C [8]: 112 % of control

SMILES: Cc1ccc(S(=O)(=O)NNC(=O)c2ccccc2Nc2cccc(Br)c2)cc1
- T/C (dose: 100.0 mg/kg/injection, schedule: Q01DX001 (ip), vehicle: Klucel (hydroxypropylcellulose) (HPC)): 97 % of control
- T/C (dose: 200.0 mg/kg/injection, schedule: Q01DX001 (ip), vehicle: Klucel (hydroxypropylcellulose) (HPC)): 97 % of control
- T/C (dose: 400.0 mg/kg/injection, schedule: Q01DX001 (ip), vehicle: Klucel (hydroxypropylcellulose) (HPC)): 98 % of control

SMILES: O=c1[nH]nnc2ccccc12
- T/C [19]: 105 % of control
- T/C [20]: 114 % of control

SMILES: Cc1c(CCNC=O)ccc2c1[nH]c1ccccc12
- T/C [21]: 95 % of control
- T/C [22]: 96 % of control
- T/C [23]: 100 % of control

SMILES: O=C1NCC(COc2ccc([N+](=O)[O-])cc2)O1 (centres undefined)
- T/C [16]: 109 % of control
- T/C [17]: 90 % of control
- T/C [18]: 93 % of control
